Columns and labels:
[1] = tested on: Jurkat Human T Cell Leukemia Line; assay: Jurkat cell viability assay (XTT reduction); format: cell-based; conditions: Jurkat cells, 24 hours, viability by XTT reduction, read-out: Toxicity (IC50)
Experimental: f. Cell viability assay. Jurkat cells were treated with MCP inhibitors or vehicle for 30 min. at 37° C. Next, ionomycin (1 μM) and the phorbol ester PMA (10 ng/ml) were added, together with 0.2% ethanol. After 24 h, cell viability was assessed by reduction of XTT (Sigma, X4251). To each well, 50 μl of XTT (1 mg/ml) and 25 μl PMS (Sigma 9625, 5 mM) were added. After 3 h at 37° C., the OD of each well was read at 450 nm/690 nm by a plate reader.
The rank-order potency for Jurkat cell killing precisely matched the order for MCP inhibition (Table 2, below).

[2] = tested on: PARP, RB and caspase-3 cleavage in Jurkat T cells; assay: Western blot of caspase-3, PARP and RB in Jurkat T cells; format: cell-based, human
Experimental: (§1) e. Whole cell extracts and western blot assay. To prepare whole cell extracts, cells were washed with PBS, and homogenized in lysis buffer (50 mM Tris, pH 8.0, 5 mM EDTA, 150 mM NaCl, 0.5% Nonidet P-40, 0.5 mM PMSF and 0.5 mM dithiothreitol). Following 30 min rocking at 4° C., the lysates were centrifuged and the supernatants were collected as whole cell extracts. The protein samples were then analyzed by sodium dodecyl sulfate-6% polyacrylamide gel electrophoresis (20-60 μg protein per lane) followed by the enhanced chemiluminescence Western blot assay using specific antibodies to CPP32, PARP, p21, p27 or RB.
Example 1 was designed to determine if MCP is involved in the survival signaling pathway(s) and if inhibition of MCP activity induces apoptosis. Human Jurkat T cells were treated with 30 μM Compound A for 4 h. […] Both the p112 and p115 forms of RB as p112-115/RB were combined and used as an apoptosis marker.
The ability of these three MCP inhibitors to induce changes in PARP and RB proteins in a parallel experiment was also investigated. […] This rank corresponded exactly to that of the three compounds for inhibition of the chymotrypsin-like activity in isolated proteasomes (Iqbal, M., et al. J. Med Chem. 38: 2276-2277, 1995; Iqbal, M., et al. Bioorg. Med. Chem. Lett. 6: 287-290, 1996) and in intact murine B cells (Harding, C. V., et al. J Immuno. 155: 1767-1775, 1995).

[3] = tested on: human leukemia HL-60 cells; assay: Apoptosis in HL-60 cells (DNA fragmentation, PARP cleavage); format: cell-based; conditions: 30 μM, 3-4 h
Experimental: (§2) d. Flow cytometry nuclear staining and DNA fragmentation assays. DNA content analysis using flow cytometry was performed as described previously (Nicoletti, I., et al. J. Immunol. Methods 139:271-279, 1992). To assay nuclear morphology, cells were washed with PBS, fixed with 70% ethanol for 1 h, and stained with Hoechst 33258 (1 mM) for 30 min. The nuclear morphology of cells was visualized by fluorescence microscope (OLYMPUS BH2). DNA fragmentation was assayed as described previously (Grant, S., et al. Cancer Res. 52:6270-6278, 1992).
as §1
Example 1 was designed to determine if MCP is involved in the survival signaling pathway(s) and if inhibition of MCP activity induces apoptosis. Human Jurkat T cells were treated with 30 μM Compound A for 4 h. […]

[4] = tested on: Human prostate cancer PC-3 cells; assay: Detachment and apoptotic nuclear changes in PC-3 cells; format: cell-based; conditions: PC-3, 10 μM, 36 h
Experimental: (§3) c. Treatment of cells with MCP inhibitor. Cells were treated with a specified MCP Inhibitor, a standard anticancer agent (etoposide or cisplatin), or DMSO (vehicle). During this process, morphological changes and cellular detachment (for attached cell lines) were monitored. At each time point, cells were harvested, and used for measurement of apoptosis and other biochemical events. In Example 1, infra, involving YVAD-CMK, Compound A was first added to Jurkat T cells. This was followed immediately by dividing the cells into multiple tissue culture flasks. YVAD-CMK was then added to an indicated concentration.
as §2
Human prostate cancer PC-3 cells were treated with 10 μM Compound A, etoposide, or an equal percentage of vehicle (DMSO), followed by separation of the attached and detached cell populations. Both attached and detached cell populations were then used for detection of apoptotic nuclear changes. After 36 h treatment with Compound A, ˜50% of PC-3 cells became detached.

[5] = tested on: oral aquamous carcinoma cell line SCC-25; assay: Detachment and apoptosis in SCC-25 cells; format: cell-based, human
Experimental: as §3, §2

[6] = tested on: glioblastoma cell line SNB-19; assay: Detachment and apoptosis in SNB-19 cells; format: cell-based, human
Experimental: as §3, §2

[7] = tested on: Normal human fibroblast cell line (WI-38); assay: Detachment, apoptotic nuclear changes and PARP cleavage in normal fibroblasts; format: cell-based
Experimental: as §3, §2, §1
Whether Compound A has, any selectivity in induction of apoptosis between transformed and normal cells was investigated. Normal human fibroblast cell line (WI-38) and its SV40-transformed derivative (WI-38 VA13) were utilized. […]

[8] = tested on: p21 and p27 in normal WI-38 fibroblasts; assay: Western blot of p21 and p27 levels in normal WI-38 fibroblasts; format: cell-based, human; conditions: normal WI-38, 10 μM, 22 hours
Experimental: as §1
The accumulation of p21 and p27 following treatment with Compound A was also evaluated in SV-40 transformed and normal WI-38 fibroblasts.

CC(C)C[C@@H](C=O)NC(=O)[C@@H](CCCNC(=N)N[N+](=O)[O-])NC(=O)C(CCCCCCCCN1C(=O)c2ccccc2C1=O)C1CCCC1 (stereo partly shown) [Compound A]
IC50 [1]: 500 nM | Production of p85/PARP and p112-115/RB ([2]; Jurkat T cells, 15 μM, time course up to 24 h): production of p85/PARP and p 112-115/RB were observed after 2 h | Cleavage of PARP to p85 and RB to p68 ([2]; Jurkat T cells, 30 μM, 4 h): induced cleavage of PARP to a p85 fragment | Processing of caspase-3 ([2]; Jurkat T cells, 30 μM, 4 h): induced processing of caspase-3 | Cleavage of PARP ([2]; Jurkat cells, 30 μM, 3-4 h): complete cleavage of PARP | Cleavage of PARP [3]: complete cleavage of PARP | Detached cells [4]: ~50% | Nuclear morphology (apoptotic condensation and fragmentation) [4]: All the detached PC-3 cells exhibited typical apoptotic nuclear condensation and fragmentation | Induction of cellular detachment and apoptosis [5]: induced cellular detachment and apoptosis | Induction of cellular detachment and apoptosis [6]: induced cellular detachment and apoptosis | Detachment and apoptotic nuclear changes ([7]; normal WI-38, 10 μM, up to 22 h): did not induce either detachment or apoptotic nuclear morphology | PARP cleavage ([7]; normal WI-38, total cell population): not in the normal | p27 levels [8]: increased only slightly

From patent publication US20010012854A1, “MULTICATALYTIC PROTEASE INHIBITORS FOR USE AS ANTI-TUMOR AGENTS” (priority 1997, published 2001)
